Data from ChEMBL document CHEMBL5058649, “Data for DCP probe BAY 1816032” (2022).

Assays:
[1] = target: Kappa-type opioid receptor (Homo sapiens) (UniProt P41145); settings: Compound concentration 10.0 uM
[2] = target: Ephrin type-B receptor 3 (Homo sapiens) (UniProt P54753); test: EPHB3 DiscoveRx kinase panel; settings: Compound concentration 1.0 uM
[3] = target: Tyrosine-protein kinase Fer (Homo sapiens) (UniProt P16591); test: FER DiscoveRx kinase panel; settings: Compound concentration 1.0 uM
[4] = target: D(3) dopamine receptor (Homo sapiens) (UniProt P35462); settings: Compound concentration 10.0 uM
[5] = target: Mitogen-activated protein kinase kinase kinase 6 (Homo sapiens) (UniProt O95382); test: ASK2 DiscoveRx kinase panel; settings: Compound concentration 1.0 uM
[6] = target: TGF-beta receptor type-1 (Homo sapiens) (UniProt P36897); test: TGFBR1 DiscoveRx kinase panel; settings: Compound concentration 1.0 uM
[7] = target: Gamma-aminobutyric acid type B receptor subunit 1 (Homo sapiens) (UniProt Q9UBS5); test: Inhibition of GABAB1A at compound concentration of 10.0 uM in the Eurofins-Panlabs radioligand binding assay (Eurofins_assay_228610); parameters: ligand concentration 4 nM; settings: Compound concentration 10.0 uM
[8] = target: Cyclin-dependent kinase 11A (Homo sapiens) (UniProt Q9UQ88); test: CDC2L2 DiscoveRx kinase panel; settings: Compound concentration 1.0 uM
[9] = target: STE20/SPS1-related proline-alanine-rich protein kinase (Homo sapiens) (UniProt Q9UEW8); test: STK39 DiscoveRx kinase panel; settings: Compound concentration 1.0 uM
[10] = target: Fibroblast growth factor receptor 1 (Homo sapiens) (UniProt P11362); test: FGFR1 DiscoveRx kinase panel; settings: Compound concentration 1.0 uM
[11] = target: Mitogen-activated protein kinase 15 (Homo sapiens) (UniProt Q8TD08); test: ERK8 DiscoveRx kinase panel; settings: Compound concentration 1.0 uM
[12] = target: 5-hydroxytryptamine receptor 3A (Homo sapiens) (UniProt P46098); settings: Compound concentration 10.0 uM
[13] = target: Serine/threonine-protein kinase PLK1 (Homo sapiens) (UniProt P53350); test: PLK1 DiscoveRx kinase panel; settings: Compound concentration 1.0 uM
[14] = target: Calcium/calmodulin-dependent protein kinase type II subunit delta (Homo sapiens) (UniProt Q13557); test: CAMK2D DiscoveRx kinase panel; settings: Compound concentration 1.0 uM
[15] = target: Serine/threonine-protein kinase PAK 4 (Homo sapiens) (UniProt O96013); test: PAK4 DiscoveRx kinase panel; settings: Compound concentration 1.0 uM
[16] = target: Testis-specific serine/threonine-protein kinase 1 (Homo sapiens) (UniProt Q9BXA7); test: TSSK1B DiscoveRx kinase panel; settings: Compound concentration 1.0 uM
[17] = target: Dual specificity protein kinase CLK4 (Homo sapiens) (UniProt Q9HAZ1); test: CLK4 DiscoveRx kinase panel; settings: Compound concentration 1.0 uM
[18] = target: Activin receptor type-1-like (Homo sapiens) (UniProt P37023); test: ACVRL1 DiscoveRx kinase panel; settings: Compound concentration 1.0 uM
[19] = target: Cyclin-dependent kinase 8 (Homo sapiens) (UniProt P49336); test: CDK8 DiscoveRx kinase panel; settings: Compound concentration 1.0 uM
[20] = target: Insulin receptor (Homo sapiens) (UniProt P06213); test: INSR DiscoveRx kinase panel; settings: Compound concentration 1.0 uM
[21] = target: Mitogen-activated protein kinase kinase kinase 19 (Homo sapiens) (UniProt Q56UN5); test: YSK4 DiscoveRx kinase panel; settings: Compound concentration 1.0 uM
[22] = target: SRSF protein kinase 2 (Homo sapiens) (UniProt P78362); test: SRPK2 DiscoveRx kinase panel; settings: Compound concentration 1.0 uM
[23] = target: cGMP-dependent protein kinase 1 (Homo sapiens) (UniProt Q13976); test: PRKG1 DiscoveRx kinase panel; settings: Compound concentration 1.0 uM
[24] = target: Ribosomal protein S6 kinase alpha-2 (Homo sapiens) (UniProt Q15349); test: RSK3(Kin.Dom.1-N-terminal) DiscoveRx kinase panel; settings: Compound concentration 1.0 uM
[25] = target: 5-hydroxytryptamine receptor 1D (Homo sapiens, UniProt P28221); settings: Compound concentration 10.0 uM
[26] = target: T1, GABA-A receptor; anion channel (Rattus norvegicus) (UniProt O09028+P15431+P18506+P18508+P19969+P20236+P23574+P23576+P28471+P28473+P30191+P62813+P63079+P63138+Q91ZM7+Q9ES14); settings: Compound concentration 10.0 uM
[27] = target: Mitogen-activated protein kinase kinase kinase 9 (Homo sapiens) (UniProt P80192); test: MLK1 DiscoveRx kinase panel; settings: Compound concentration 1.0 uM
[28] = target: Rhodopsin kinase GRK7 (Homo sapiens) (UniProt Q8WTQ7); test: GRK7 DiscoveRx kinase panel; settings: Compound concentration 1.0 uM
[29] = target: 5-hydroxytryptamine receptor 1B (Homo sapiens) (UniProt P28222); settings: Compound concentration 10.0 uM
[30] = target: Serine/threonine-protein kinase D3 (Homo sapiens) (UniProt O94806); test: PRKD3 DiscoveRx kinase panel; settings: Compound concentration 1.0 uM
[31] = target: T1, GABA-A receptor; anion channel (Rattus norvegicus); settings: Compound concentration 10.0 uM; remark: listed apart in the source
[32] = target: RAC-gamma serine/threonine-protein kinase (Homo sapiens) (UniProt Q9Y243); test: AKT3 DiscoveRx kinase panel; settings: Compound concentration 1.0 uM
[33] = target: Fibroblast growth factor receptor 4 (Homo sapiens) (UniProt P22455); test: FGFR4 DiscoveRx kinase panel; settings: Compound concentration 1.0 uM
[34] = target: Insulin receptor-related protein (Homo sapiens) (UniProt P14616); test: INSRR DiscoveRx kinase panel; settings: Compound concentration 1.0 uM
[35] = target: Tyrosine-protein kinase Mer (Homo sapiens) (UniProt Q12866); test: MERTK DiscoveRx kinase panel; settings: Compound concentration 1.0 uM
[36] = target: Calcium/calmodulin-dependent protein kinase type II subunit beta (Homo sapiens) (UniProt Q13554); test: CAMK2B DiscoveRx kinase panel; settings: Compound concentration 1.0 uM
[37] = target: Serine/threonine-protein kinase 10 (Homo sapiens, UniProt O94804); test: LOK DiscoveRx kinase panel
[38] = target: T1, GABA-A receptor; anion channel (Rattus norvegicus); settings: Compound concentration 10.0 uM; remark: listed apart in the source
[39] = target: Cannabinoid receptor 1 (Homo sapiens) (UniProt P21554); settings: Compound concentration 10.0 uM
[40] = target: Ribosomal protein S6 kinase beta-1 (Homo sapiens) (UniProt P23443); test: S6K1 DiscoveRx kinase panel; settings: Compound concentration 1.0 uM
[41] = target: Mitogen-activated protein kinase kinase kinase kinase 1 (Homo sapiens) (UniProt Q92918); test: HPK1 DiscoveRx kinase panel; settings: Compound concentration 1.0 uM
[42] = target: 5-hydroxytryptamine receptor 1A (Homo sapiens) (UniProt P08908); test: Serotonin (5-Hydroxytryptamine) 5-HT1A Eurofins-Panlabs radioligand binding assay; settings: Compound concentration 10.0 uM
[43] = target: MAP kinase-activated protein kinase 5 (Homo sapiens) (UniProt Q8IW41); test: MAPKAPK5 DiscoveRx kinase panel; settings: Compound concentration 1.0 uM
[44] = target: Serine/threonine-protein kinase 26 (Homo sapiens) (UniProt Q9P289); test: MST4 DiscoveRx kinase panel; settings: Compound concentration 1.0 uM
Serine/threonine-protein kinase 26 (Homo sapiens), sequence (Q9P289 2-416 limits assumed): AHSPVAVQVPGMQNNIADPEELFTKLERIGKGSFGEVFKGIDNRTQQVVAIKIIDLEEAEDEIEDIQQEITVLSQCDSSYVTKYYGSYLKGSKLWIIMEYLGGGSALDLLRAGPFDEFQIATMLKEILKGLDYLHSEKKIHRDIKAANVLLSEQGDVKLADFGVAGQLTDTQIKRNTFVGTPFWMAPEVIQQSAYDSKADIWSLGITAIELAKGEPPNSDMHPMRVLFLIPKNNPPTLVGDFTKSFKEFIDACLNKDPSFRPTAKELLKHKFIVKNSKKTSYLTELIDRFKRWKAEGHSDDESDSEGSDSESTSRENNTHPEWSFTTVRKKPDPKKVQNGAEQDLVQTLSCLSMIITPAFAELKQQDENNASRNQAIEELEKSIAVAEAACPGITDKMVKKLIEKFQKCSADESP

Gamma-aminobutyric acid type B receptor subunit 1 (Homo sapiens), sequence (Q9UBS5 whole entry): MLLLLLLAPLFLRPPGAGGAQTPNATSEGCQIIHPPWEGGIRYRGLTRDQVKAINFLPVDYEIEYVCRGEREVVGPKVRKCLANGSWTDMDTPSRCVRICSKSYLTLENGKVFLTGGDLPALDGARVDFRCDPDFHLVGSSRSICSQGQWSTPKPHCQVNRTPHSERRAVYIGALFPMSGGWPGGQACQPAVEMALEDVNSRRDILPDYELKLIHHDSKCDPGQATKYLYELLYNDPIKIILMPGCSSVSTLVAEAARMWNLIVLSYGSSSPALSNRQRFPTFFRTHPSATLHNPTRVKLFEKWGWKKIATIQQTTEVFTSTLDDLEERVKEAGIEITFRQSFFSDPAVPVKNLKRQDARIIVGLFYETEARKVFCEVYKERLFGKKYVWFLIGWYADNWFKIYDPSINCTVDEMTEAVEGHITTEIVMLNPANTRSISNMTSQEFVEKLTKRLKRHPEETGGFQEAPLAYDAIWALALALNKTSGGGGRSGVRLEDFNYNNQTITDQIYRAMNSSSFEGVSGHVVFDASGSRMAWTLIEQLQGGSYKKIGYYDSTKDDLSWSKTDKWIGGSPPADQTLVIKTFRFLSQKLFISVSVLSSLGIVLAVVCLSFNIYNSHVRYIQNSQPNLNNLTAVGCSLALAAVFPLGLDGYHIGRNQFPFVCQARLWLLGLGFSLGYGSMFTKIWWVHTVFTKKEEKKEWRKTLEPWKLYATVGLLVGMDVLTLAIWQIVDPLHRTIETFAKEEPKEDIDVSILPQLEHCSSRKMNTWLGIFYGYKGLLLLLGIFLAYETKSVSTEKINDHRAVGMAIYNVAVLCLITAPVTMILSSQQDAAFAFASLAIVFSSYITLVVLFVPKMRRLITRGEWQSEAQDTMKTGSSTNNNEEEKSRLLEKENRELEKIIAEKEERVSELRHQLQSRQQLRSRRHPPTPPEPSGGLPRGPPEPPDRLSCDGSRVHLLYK
cGMP-dependent protein kinase 1 (Homo sapiens), sequence (Q13976 whole entry): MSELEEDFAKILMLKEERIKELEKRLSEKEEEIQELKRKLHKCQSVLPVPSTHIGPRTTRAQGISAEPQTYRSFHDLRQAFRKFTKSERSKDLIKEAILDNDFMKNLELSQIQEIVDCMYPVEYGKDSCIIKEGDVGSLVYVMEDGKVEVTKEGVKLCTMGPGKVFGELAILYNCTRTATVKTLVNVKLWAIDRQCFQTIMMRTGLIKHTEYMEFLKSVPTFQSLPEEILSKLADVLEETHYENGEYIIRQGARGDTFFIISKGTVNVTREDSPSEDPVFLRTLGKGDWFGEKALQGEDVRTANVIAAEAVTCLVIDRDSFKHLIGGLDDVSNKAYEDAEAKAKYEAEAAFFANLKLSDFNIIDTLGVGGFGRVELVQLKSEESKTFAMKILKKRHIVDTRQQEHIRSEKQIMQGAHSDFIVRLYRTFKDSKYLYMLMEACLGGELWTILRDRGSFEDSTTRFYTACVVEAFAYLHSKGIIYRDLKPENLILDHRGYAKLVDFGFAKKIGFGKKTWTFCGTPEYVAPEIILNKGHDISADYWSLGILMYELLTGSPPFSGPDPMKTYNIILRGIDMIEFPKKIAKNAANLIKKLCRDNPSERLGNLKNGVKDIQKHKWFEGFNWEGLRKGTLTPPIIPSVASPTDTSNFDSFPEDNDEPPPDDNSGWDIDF
Dual specificity protein kinase CLK4 (Homo sapiens), sequence (Q9HAZ1 whole entry, looked up): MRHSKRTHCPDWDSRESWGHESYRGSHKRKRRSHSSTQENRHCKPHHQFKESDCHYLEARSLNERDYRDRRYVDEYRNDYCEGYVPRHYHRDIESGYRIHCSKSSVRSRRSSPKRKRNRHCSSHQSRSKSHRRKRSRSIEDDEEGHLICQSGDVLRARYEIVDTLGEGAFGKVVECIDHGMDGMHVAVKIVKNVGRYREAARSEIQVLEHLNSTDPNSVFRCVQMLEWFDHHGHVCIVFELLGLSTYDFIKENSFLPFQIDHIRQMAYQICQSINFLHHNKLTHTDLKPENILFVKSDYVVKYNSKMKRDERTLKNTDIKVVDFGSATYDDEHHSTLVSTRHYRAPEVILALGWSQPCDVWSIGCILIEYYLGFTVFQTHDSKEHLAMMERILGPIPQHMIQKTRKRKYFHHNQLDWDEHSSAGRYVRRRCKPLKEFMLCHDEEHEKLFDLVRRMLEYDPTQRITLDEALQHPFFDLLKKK
Mitogen-activated protein kinase kinase kinase 19 (Homo sapiens), sequence (Q56UN5 whole entry): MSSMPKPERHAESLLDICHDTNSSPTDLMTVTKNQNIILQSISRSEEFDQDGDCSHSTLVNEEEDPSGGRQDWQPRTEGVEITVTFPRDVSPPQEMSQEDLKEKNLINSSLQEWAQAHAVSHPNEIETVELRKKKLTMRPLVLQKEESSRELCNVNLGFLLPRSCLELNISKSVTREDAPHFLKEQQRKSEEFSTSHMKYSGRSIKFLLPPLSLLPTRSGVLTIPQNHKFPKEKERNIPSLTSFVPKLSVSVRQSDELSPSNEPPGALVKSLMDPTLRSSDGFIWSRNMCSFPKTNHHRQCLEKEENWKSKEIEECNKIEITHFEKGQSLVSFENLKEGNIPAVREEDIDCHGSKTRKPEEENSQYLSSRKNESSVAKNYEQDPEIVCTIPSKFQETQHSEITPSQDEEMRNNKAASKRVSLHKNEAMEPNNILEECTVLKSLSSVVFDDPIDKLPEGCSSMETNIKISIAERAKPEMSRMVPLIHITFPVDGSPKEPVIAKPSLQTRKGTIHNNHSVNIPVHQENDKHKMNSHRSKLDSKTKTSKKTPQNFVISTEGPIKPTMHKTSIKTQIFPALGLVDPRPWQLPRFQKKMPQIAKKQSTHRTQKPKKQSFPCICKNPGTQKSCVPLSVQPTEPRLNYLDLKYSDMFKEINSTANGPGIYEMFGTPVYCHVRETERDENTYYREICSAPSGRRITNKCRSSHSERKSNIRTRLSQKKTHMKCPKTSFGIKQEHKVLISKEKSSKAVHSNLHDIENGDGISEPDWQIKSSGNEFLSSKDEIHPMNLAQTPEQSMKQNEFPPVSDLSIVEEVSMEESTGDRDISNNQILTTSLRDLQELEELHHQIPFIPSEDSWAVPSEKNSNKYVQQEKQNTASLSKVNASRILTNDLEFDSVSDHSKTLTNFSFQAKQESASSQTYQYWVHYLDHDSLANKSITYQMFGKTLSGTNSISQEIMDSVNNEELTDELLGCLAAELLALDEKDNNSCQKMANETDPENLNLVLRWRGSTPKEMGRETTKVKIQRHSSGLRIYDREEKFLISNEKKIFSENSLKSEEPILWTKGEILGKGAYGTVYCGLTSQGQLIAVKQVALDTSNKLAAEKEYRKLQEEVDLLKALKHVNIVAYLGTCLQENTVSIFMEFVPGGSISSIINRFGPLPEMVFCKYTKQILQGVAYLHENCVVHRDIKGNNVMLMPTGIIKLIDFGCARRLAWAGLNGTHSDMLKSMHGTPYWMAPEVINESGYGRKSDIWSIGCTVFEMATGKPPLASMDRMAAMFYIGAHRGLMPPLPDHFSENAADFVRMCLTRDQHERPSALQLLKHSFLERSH
Mitogen-activated protein kinase 15 (Homo sapiens), sequence (Q8TD08 whole entry): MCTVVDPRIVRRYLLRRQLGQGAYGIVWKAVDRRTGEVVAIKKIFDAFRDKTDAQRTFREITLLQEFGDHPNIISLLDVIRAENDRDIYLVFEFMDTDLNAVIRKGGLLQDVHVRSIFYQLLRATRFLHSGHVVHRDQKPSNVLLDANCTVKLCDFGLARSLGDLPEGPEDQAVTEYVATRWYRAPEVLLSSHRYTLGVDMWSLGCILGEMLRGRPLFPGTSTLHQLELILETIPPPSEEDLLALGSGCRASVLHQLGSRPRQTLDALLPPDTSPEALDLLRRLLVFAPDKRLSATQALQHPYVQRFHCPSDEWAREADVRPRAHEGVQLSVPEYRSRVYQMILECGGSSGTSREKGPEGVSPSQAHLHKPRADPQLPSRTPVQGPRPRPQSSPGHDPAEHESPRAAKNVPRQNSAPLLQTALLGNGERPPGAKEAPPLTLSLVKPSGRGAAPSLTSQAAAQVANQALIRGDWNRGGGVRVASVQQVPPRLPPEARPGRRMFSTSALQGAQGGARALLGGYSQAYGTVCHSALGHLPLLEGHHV
Serine/threonine-protein kinase PLK1 (Homo sapiens), sequence (P53350 whole entry): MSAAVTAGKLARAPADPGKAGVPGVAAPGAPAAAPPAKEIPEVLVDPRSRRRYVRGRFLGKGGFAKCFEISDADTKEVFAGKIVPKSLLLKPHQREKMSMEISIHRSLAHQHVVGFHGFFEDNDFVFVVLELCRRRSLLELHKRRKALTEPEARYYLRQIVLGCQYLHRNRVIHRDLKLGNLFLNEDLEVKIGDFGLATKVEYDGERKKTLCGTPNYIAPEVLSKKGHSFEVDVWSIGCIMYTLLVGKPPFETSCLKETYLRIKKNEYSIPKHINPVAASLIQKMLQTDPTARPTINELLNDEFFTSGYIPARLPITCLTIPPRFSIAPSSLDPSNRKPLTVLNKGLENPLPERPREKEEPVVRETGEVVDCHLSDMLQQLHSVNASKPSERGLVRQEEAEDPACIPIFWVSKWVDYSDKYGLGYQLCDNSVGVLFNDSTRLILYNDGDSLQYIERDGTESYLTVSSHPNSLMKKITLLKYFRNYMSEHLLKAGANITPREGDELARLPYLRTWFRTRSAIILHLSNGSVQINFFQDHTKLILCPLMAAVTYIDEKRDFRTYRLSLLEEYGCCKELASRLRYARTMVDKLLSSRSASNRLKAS

Structure (SMILES): COc1cnccc1Nc1nc(-c2nn(Cc3c(F)cc(OCCO)cc3F)c3ccccc23)ncc1OC
- inhibition [1]: 26%
- residual activity [2]: 95%
- residual activity [3]: 100%
- inhibition [4]: 1.89%
- residual activity [5]: 82%
- residual activity [6]: 53%
- inhibition [7]: -2%
- residual activity [8]: 100%
- residual activity [9]: 97%
- residual activity [10]: 87%
- residual activity [11]: 100%
- inhibition [12]: -8.58%
- residual activity [13]: 98%
- residual activity [14]: 100%
- residual activity [15]: 82%
- residual activity [16]: 100%
- residual activity [17]: 83%
- residual activity [18]: 69%
- residual activity [19]: 69%
- residual activity [20]: 97%
- residual activity [21]: 97%
- residual activity [22]: 77%
- residual activity [23]: 74%
- residual activity [24]: 80%
- inhibition [25]: 9.3%
- inhibition [26]: 7%
- residual activity [27]: 92%
- residual activity [28]: 60%
- inhibition [29]: 11.8%
- residual activity [30]: 79%
- inhibition [31]: 24.9%
- residual activity [32]: 100%
- residual activity [33]: 98%
- residual activity [34]: 96%
- residual activity [35]: 83%
- residual activity [36]: 100%
- residual activity [37]: 57%
- residual activity ([37]; Compound concentration 1.0 uM): 0.6%
- inhibition [38]: 60%
- inhibition [39]: -6%
- residual activity [40]: 100%
- residual activity [41]: 77%
- inhibition [42]: 0%
- residual activity [43]: 100%
- residual activity [44]: 100%
